# According to patent US12590054B2 (Board of Regents, The University of Texas System, priority 2021, dated 2026):
# Entries after “also recorded” stand apart in the source; their conditions may differ.
# What was measured:
# [1] = Tissue distribution after single i.v. injection in male CD-1 mice; conditions: for rank order of the exposure of the organs to the parent drug: i.v. administration
# Swiss mice = conditions: intraperitoneally (i.p.); cited from earlier work
# [2] = test system: mice with plantar incision; assay: Postoperative pain model (plantar incision), von Frey paw withdrawal; conditions: for effect on postoperative mechanical hypersensitivity: post-operative treatment
# Method: (§1) Animal models of pain. To model postoperative pain in mice, plantar incision was performed under isoflurane anesthesia. Specifically, a 4-8 mm incision was made through the skin, fascia, and muscle of the plantar side of one hind paw, longitudinally starting from the proximal edge of the heel. The skin was apposed with sutures (Fine Science Tools, Foster City, CA). The suture was removed at the end of postoperative day 2. To model neuropathic pain in mice, a surgery was performed to ligate the fifth lumbar (L5) spinal nerve (spinal nerve ligation, SNL).
# (§2) Behavioral testing. Mechanical pain sensitivity after plantar incision or SNL was assessed by measuring paw withdrawal behaviors in response to von Frey filament (VFF) probing. A mouse was placed in a plastic chamber on top of a mesh screen platform. The VFF of 0.98 mN was applied perpendicularly to the hind paw. […] The percent of withdrawal responses out of the ten trials was recorded.
# (§3) Statistical analysis. We used a generalized linear mixed model to analyze the number of withdrawals out of 10 trials (binomial distribution) repeatedly measured at multiple time points (AR1 covariance structure) with random intercepts for subject (i.e., mouse) variances. Degrees of freedom were allowed to vary across tests by Satterthwaite approximation.
# naïve mice = assay: Abuse liability, conditioned place preference (CPP) paradigm; format: in vivo, mouse; conditions: 2-day conditioning
# Method: Experimental approaches. […] Specifically, one day after measuring natural place preference, vehicle was be given in the morning, and the mouse was placed in its preferred chamber for 20 min. In the afternoon, test drugs were given, and the mouse was placed in its non-preferred chamber for 20 min. This conditioning procedure was repeated 2 times. One day after the last conditioning session, CPP for the drug-paired chamber was measured for 20 min.
# [3] = Plasma pharmacokinetics after single i.v. injection in male CD-1 mice; conditions: parent drug in plasma, 2.0 mg/kg i.v.
# human hepatic microsomes = conditions: pooled human liver microsomes, 50-200 μM substrate, 20 min, 37° C.
# Method: The reaction was incubated for 20 min at 37° C. and terminated by the addition of 1.2 mL of cold acetonitrile.
# Analytical method: An LC-MS/MS method for the quantification of EDDP, d3-EDDP and d6-EDDP was developed and validated. The samples were analyzed with an API 4000 triple quadrupole mass spectrometer coupled with an Agilent HPLC 1200 system (Applied Biosystems, Foster City, CA). […] Separation of EDDP, d3-EDDP and d6-EDDP was achieved by a Waters Symmetry C18 HPLC column at 45° C.
# [4] = test system: mice with spinal nerve ligation (SNL); assay: Neuropathic pain model (spinal nerve ligation, SNL), von Frey paw withdrawal
# Method: as §1, §2, §3
# [5] = 3 mg/kg i.p., once daily for 4 days
smiles,measurement,setting,value
"CCC(=O)C(CC(C)N(C)C)(c1ccccc1)c1ccccc1 (racemic) [methadone, 6-(dimethylamino)-4,4-diphenylheptan-3-one]",rank order of the exposure of the organs to the parent drug,[1],kidneys≈lungs>spleen>liver>heart>brain
same,LD50,Swiss mice,41 mg/kg
same,effect on postoperative mechanical hypersensitivity,[2]; [5],unable to reduce
same,conditioned place preference for the drug-paired chamber,naïve mice,developed CPP; also recorded: relatively weaker conditioned place preference
same,AUC0-8 h,[3],414 ± 67 ng·h/mL
same,AUC0-∞,[3],436 ± 75 ng·h/mL
same,Tmax,[3],0.08 ± 0^ h
same,Cmax,[3]; mean ± s.d.,521 ± 55 ng/mL
"[2H]C([2H])([2H])CC(=O)C(CC(C)N(C)C)(c1ccccc1)c1ccccc1 (stereo not drawn) [d3-methadone, reference compound]",biotransformation (N-demethylation) rate compared to the non-deuterated substrate,human hepatic microsomes,significantly decreased the biotransformation
[2H]C([2H])([2H])CC(=O)C(CC(C)N(C([2H])([2H])[2H])C([2H])([2H])[2H])(c1ccccc1)c1ccccc1 (racemic) [d9-methadone],biotransformation (N-demethylation) rate compared to the non-deuterated substrate,human hepatic microsomes,further decreased the rate
same,rank order of the exposure of the organs to the parent drug,[1],lungs>kidneys≈liver>spleen>heart>brain
same,Kp,"[1]; male, CD-1, mouse, in vivo, iv, 2 mg/kg",0.35 ± 0.12
same,effect on neuropathic pain (tactile allodynia),[4]; 3 mg/kg i.p. once daily for 3 days after SNL,effectively alleviated this neuropathic pain after each injection; also recorded: effectively inhibited this neuropathic pain after each injection
same,development of analgesic tolerance,"[4]; once daily for 3 days, 3 mg/kg i.p.",no development of the apparent analgesic tolerance
same,"postoperative mechanical hypersensitivity vs methadone-treated mice, next day","[2]; intra-operative treatment, 3 mg/kg i.p.",no difference
same,"postoperative mechanical hypersensitivity vs methadone-treated mice, day of surgery (2 hr, 4 hr)","[2]; intra-operative treatment, 3 mg/kg i.p. before plantar incision",lower postoperative mechanical hypersensitivity
same,development of analgesic tolerance,"[2]; once daily for 4 days, 3 mg/kg i.p.",no development of the apparent analgesic tolerance
same,effect on postoperative mechanical hypersensitivity,[2]; [5],alleviated hypersensitivity after each systemic injection
same,"Cohen's d, % withdrawals before and after treatment","[2]; postoperative treatment, paired comparison",> 20
same,"Cohen's d between methadone and d9-methadone groups, % of withdrawals 4 hours post-incision",[2]; preliminary intra-operative treatment,2.1
same,conditioned place preference for the drug-paired chamber,naïve mice,did not develop conditioned place preference; also recorded: did not develop CPP; also recorded: did not show any apparent conditioned place preference
CN1CC[C@]23c4c5ccc(O)c4O[C@H]2[C@@H](O)C=C[C@H]3[C@H]1C5 [morphine],conditioned place preference for the drug-paired chamber,naïve mice,spent significantly more time in the bright chamber; also recorded: developed CPP
"C=CC[N+]1(C)CC[C@]23c4c5ccc(O)c4O[C@H]2C(=O)CC[C@@]3(O)[C@H]1C5 (stereo partly drawn) [NLXM, naloxone methiodide, reference compound]",effect of NLXM on the relief of postoperative pain by d9-methadone,[2]; NLXM 10 mg/kg i.p. 30 minutes before d9-methadone,completely blocked the effect of d9-methadone
"CCC1=[N+](C)C(C)CC1(c1ccccc1)c1ccccc1 (stereo not drawn) [EDDP, 2-ethylidine-1,5-dimethyl-3,3-diphenylpyrrolidine]",rank order of the exposure of the organs to the metabolite,[1]; i.v. administration of the parent drug,lungs>liver>kidney≈heart>spleen
